Experimental data as given in article PMC12152147, “DDB1 engagement defines the selectivity of S656 analogs for cyclin K degradation over CDK inhibition” (EMBO Reports, 2025).
Where “and” joins values, the source holds several entries; their conditions need not be identical. Equal entries are not always repeated. Where two headings read alike, the source gives them in different places.

Key:
[1] = test system: OCI-AML5 cells expressing shRNAs targeting CDK1, 2, 4, 7, 9, cyclin K; assay: Dose response in OCI-AML5 expressing shRNAs targeting CDK1, 2, 4, 7, 9, cyclin K or control; type: cell-based, H. sapiens; settings: for IC50: OCI-AML5, 4 days
cyclin KeGFP = assay: Cyclin KeGFP reporter system (eGFP/mCherry MFI by flow cytometry);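 for % degradation cyclin K-eGFP: 10 μM compound for 3 h relative to DMSO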; type: cell-based, H. sapiens
How it was run: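 Degradation read as eGFP-to-mCherry MFI ratio relative to DMSO controls, from flow cytometry of the selected G7 clone of OCI-AML5 cells transduced with the cyclin KeGFP reporter.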

primary AML specimens = assay: Dose-response assays in primary AML specimens (6 days, CellTiterGlo); type: cell-based, human; settings: 6 days, read-out: IC50
How it was run: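 Primary AML cells in IMDM/15% BIT with SCF, FLT3L, IL3, G-CSF, SR1 and UM729 were exposed to 8-point 1:4 dilutions (10 μM to 0.5 nM) for 6 days. Viability came from CellTiterGlo luminescence, with % inhibition versus DMSO (0.1%) fitted by nonlinear regression.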

[2] = test system: OCI-AML5 cells expressing shRNA targeting CUL4A or CUL4B; assay: Dose response in OCI-AML5 expressing shRNAs targeting CUL4A, CUL4B or control; type: cell-based, H. sapiens; settings: ratio of IC50 in shCUL4A vs shCTRL OCI-AML5 cells
OCI-AML5 cells = assay: Dose-response proliferative assay in OCI-AML5 (4 days, CellTiterGlo); type: cell-based, H. sapiens; settings: OCI-AML5 cells; read-out: IC50 in AML5
How it was run: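 Viability assessed after 4 days of compound exposure at 37 °C, 5% CO2. Compounds tested as 8 dilutions (1:4, 10 μM to 0.5 nM) on 300 OCI-AML5 cells/well grown in αMEM with 10% heat-inactivated FBS and 10 ng/mL GM-CSF.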

CDK9/CyclinT = biological target: T1, CDK9/CyclinT (Homo sapiens, UniProt P50750); assay: CDK9/CyclinT in vitro kinase activity, single concentration 1 μM; type: biochemical; settings: single concentration 1 μM
T1 construct: purchased BPS Bioscience 79628
T1 sequence (P50750 whole entry): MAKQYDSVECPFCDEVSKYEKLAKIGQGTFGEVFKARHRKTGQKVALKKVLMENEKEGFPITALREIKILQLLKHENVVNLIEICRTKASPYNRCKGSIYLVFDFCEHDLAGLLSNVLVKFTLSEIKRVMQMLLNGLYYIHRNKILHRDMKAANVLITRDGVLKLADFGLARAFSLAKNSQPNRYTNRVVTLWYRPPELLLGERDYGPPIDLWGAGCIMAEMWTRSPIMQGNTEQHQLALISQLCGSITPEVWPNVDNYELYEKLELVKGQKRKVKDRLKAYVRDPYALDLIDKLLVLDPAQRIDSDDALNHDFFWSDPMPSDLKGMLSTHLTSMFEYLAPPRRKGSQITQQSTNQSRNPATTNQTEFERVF
T1 sequence (O60563 whole entry partner): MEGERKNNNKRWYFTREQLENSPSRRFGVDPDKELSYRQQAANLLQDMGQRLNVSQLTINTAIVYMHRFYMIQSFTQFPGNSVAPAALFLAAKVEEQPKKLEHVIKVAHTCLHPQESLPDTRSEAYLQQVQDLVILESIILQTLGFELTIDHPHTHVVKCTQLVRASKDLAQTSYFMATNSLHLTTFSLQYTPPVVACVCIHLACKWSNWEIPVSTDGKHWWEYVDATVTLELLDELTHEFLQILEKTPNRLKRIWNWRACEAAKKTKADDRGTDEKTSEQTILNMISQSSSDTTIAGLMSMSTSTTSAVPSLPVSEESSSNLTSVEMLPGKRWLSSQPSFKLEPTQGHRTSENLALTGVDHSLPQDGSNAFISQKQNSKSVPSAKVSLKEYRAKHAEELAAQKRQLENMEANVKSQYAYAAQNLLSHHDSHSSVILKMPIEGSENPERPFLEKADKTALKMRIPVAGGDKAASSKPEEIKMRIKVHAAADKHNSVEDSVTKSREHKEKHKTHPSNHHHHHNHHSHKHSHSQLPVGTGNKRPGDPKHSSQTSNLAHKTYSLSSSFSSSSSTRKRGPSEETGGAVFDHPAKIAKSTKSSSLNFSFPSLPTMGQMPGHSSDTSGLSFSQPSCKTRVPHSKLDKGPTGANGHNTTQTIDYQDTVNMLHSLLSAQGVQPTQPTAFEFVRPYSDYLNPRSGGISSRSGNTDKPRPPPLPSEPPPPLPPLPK
Description: (§1) Kinase activity was assessed using the kinase assay kits from BPS Bioscience for CDK1, CDK9 and CDK12 with Kinase Glo MAX in duplicates. Compounds were tested at a single concentration of 1 μM for CDK1 and CDK9 activity, and in a dilution ranging from 0.64 nM to 50 μM for CDK12 activity. Chemiluminescence was read using the Neo Synergy BioTek plate reader.

CDK1 = biological target: T2, CDK1 (Homo sapiens, UniProt P06493); assay: CDK1 in vitro kinase activity, single concentration 1 μM; type: biochemical; settings: single concentration 1 μM
T2 construct: purchased BPS Bioscience 79597
T2 sequence (P06493 whole entry): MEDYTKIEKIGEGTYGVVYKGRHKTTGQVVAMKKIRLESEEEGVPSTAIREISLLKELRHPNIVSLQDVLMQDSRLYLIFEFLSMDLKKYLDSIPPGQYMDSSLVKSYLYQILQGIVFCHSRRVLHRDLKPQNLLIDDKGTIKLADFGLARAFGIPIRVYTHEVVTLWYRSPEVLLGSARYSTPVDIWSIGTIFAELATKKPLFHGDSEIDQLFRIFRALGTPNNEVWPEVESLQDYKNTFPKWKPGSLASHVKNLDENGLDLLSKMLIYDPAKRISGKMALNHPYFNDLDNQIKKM
T2 sequence (P14635 whole entry partner): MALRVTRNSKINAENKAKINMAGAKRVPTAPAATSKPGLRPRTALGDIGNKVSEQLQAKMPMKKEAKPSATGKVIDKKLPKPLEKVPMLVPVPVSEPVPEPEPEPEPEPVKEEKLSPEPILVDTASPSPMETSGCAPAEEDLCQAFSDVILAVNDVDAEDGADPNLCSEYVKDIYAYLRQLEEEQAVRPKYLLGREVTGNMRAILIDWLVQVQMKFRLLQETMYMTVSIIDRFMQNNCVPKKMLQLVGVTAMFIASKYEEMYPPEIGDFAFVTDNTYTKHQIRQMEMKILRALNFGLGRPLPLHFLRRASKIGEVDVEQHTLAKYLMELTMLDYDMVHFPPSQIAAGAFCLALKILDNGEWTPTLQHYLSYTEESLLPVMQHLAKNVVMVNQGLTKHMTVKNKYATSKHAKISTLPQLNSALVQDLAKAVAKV
Description: as §1

CDK12/Cyclin K = biological target: T3, CDK12/Cyclin K (Homo sapiens, UniProt Q9NYV4); assay: CDK12/CyclinK in vitro kinase assay (BPS kit, Kinase Glo MAX); type: biochemical
T3 construct: purchased BPS Bioscience 78298
T3 sequence (Q9NYV4 whole entry): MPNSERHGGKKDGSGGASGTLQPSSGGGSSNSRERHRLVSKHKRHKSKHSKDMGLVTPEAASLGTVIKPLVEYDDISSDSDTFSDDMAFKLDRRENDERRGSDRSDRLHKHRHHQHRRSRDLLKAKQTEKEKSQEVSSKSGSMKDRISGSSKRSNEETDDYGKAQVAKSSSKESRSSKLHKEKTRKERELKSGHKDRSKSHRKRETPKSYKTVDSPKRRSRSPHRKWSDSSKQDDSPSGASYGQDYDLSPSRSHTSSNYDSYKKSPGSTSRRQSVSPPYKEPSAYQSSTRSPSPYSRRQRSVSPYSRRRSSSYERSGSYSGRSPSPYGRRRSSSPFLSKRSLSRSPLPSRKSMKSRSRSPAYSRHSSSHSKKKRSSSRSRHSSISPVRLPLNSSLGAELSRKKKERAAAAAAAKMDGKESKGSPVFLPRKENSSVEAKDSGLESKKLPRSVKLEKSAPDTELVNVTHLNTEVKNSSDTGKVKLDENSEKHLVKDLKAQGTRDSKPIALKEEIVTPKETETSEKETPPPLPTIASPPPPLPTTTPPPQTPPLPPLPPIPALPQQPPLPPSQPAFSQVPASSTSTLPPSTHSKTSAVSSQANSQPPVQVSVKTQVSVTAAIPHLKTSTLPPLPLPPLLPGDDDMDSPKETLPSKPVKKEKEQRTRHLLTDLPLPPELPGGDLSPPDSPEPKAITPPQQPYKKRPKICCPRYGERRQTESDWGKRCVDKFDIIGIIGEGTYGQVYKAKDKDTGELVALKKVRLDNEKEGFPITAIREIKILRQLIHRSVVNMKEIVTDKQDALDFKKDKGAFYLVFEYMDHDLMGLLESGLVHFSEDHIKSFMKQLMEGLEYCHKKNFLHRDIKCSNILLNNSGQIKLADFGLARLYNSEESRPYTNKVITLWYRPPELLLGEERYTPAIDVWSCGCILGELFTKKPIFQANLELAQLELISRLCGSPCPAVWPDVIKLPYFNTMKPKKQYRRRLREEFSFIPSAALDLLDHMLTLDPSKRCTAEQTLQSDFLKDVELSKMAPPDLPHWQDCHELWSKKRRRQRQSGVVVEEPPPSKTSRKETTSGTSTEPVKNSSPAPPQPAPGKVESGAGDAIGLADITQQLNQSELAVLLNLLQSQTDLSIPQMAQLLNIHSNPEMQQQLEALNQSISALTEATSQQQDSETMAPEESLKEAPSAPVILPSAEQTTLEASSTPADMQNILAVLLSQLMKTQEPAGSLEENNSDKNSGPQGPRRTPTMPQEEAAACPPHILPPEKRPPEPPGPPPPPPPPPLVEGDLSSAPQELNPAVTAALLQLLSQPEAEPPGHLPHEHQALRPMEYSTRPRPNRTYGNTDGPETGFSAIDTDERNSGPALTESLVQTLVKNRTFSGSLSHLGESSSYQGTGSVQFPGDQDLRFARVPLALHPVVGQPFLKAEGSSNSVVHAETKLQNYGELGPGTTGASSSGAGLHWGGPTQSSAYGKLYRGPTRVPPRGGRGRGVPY
T3 sequence (O75909 whole entry partner): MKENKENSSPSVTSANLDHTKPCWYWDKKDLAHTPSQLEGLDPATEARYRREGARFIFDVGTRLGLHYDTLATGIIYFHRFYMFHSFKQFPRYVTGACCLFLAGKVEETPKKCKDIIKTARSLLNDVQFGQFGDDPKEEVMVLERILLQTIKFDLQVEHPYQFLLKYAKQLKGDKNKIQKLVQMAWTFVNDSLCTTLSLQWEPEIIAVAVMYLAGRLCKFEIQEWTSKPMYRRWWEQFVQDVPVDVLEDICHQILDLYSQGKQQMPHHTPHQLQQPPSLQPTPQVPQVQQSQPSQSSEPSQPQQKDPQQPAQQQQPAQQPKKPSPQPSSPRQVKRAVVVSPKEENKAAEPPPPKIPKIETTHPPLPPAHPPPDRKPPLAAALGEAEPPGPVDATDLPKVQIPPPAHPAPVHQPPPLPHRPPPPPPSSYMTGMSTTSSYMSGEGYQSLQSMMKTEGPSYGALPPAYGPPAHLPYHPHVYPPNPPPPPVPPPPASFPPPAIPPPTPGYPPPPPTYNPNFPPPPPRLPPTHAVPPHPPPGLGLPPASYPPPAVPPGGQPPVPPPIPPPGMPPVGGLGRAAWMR
Description: as §1

Cc1cccc(Nc2nc(CC(=O)Nc3ncc(C)s3)cs2)n1 [HQ461]
IC50 ([1]; read-out: IC50, sh CDK1): 1500 nM and 2300 nM and 2010 nM | IC50 ([1]; read-out: IC50, sh CDK2): 1310 nM and 1750 nM and 2460 nM | IC50 ([1]; read-out: IC50, sh CDK4): 1240 nM and 1300 nM and 1980 nM | IC50 ([1]; read-out: IC50, sh CDK7): 1090 nM and 1800 nM and 1930 nM | IC50 ([1]; read-out: IC50, sh CDK9): 1110 nM and 1360 nM and 1320 nM | IC50 ([1]; read-out: IC50, sh Cyclin K): 429 nM and 562 nM and 546 nM | IC50 ([1]; read-out: IC50, sh ctrl): 1070 nM and 1220 nM and 1040 nM | Class ([1]; class from shRNA IC50 profile and cyclin K-eGFP degradation): 1 | MFI of cyclin KeGFP over mCherry (cyclin KeGFP; OCI-AML5 G7 clone, 3 h, 10 μM, normalized to DMSO (=100)): 20.9 and 23.4 and 22.9 and 21.1 and 21.0 | % degradation cyclin K-eGFP (cyclin KeGFP; cyclin K-eGFP reporter): 79% | IC50 (primary AML specimens; primary AML specimen 03H109): 883 nM | IC50 (primary AML specimens; primary AML specimen 04H055): 2010 nM | IC50 (primary AML specimens; primary AML specimen 04H096): 1220 nM | IC50 (primary AML specimens; primary AML specimen 04H138): 2260 nM | IC50 (primary AML specimens; primary AML specimen 05H113): 974 nM | IC50 (primary AML specimens; primary AML specimen 05H149): 1170 nM | IC50 (primary AML specimens; primary AML specimen 05H193): 1260 nM | IC50 (primary AML specimens; primary AML specimen 06H088): 1320 nM | IC50 (primary AML specimens; primary AML specimen 06H117): 1200 nM | IC50 (primary AML specimens; primary AML specimen 06H151): 677 nM | IC50 (primary AML specimens; primary AML specimen 07H003): 2350 nM | IC50 (primary AML specimens; primary AML specimen 07H131): 2900 nM | IC50 (primary AML specimens; primary AML specimen 07H144): 983 nM | IC50 (primary AML specimens; primary AML specimen 07H155): 2460 nM | IC50 (primary AML specimens; primary AML specimen 08H018): 2240 nM | IC50 (primary AML specimens; primary AML specimen 08H021): 1030 nM | IC50 (primary AML specimens; primary AML specimen 08H056): 2300 nM | IC50 (primary AML specimens; primary AML specimen 08H063): 2420 nM | IC50 (primary AML specimens; primary AML specimen 08H085): 1050 nM | IC50 (primary AML specimens; primary AML specimen 08H108): 2180 nM | IC50 (primary AML specimens; primary AML specimen 08H118): 873 nM | IC50 (primary AML specimens; primary AML specimen 09H016): 869 nM | IC50 (primary AML specimens; primary AML specimen 09H070): 2340 nM | IC50 (primary AML specimens; primary AML specimen 10H014): 529 nM | IC50 (primary AML specimens; primary AML specimen 10H046): 1050 nM | IC50 (primary AML specimens; primary AML specimen 10H107): 1400 nM | IC50 (primary AML specimens; primary AML specimen 10H127): 1920 nM | IC50 (primary AML specimens; primary AML specimen 10H161): 1220 nM | IC50 (primary AML specimens; primary AML specimen 10H174): 950 nM | IC50 (primary AML specimens; primary AML specimen 11H008): 1540 nM | IC50 (primary AML specimens; primary AML specimen 11H019): 1320 nM | IC50 (primary AML specimens; primary AML specimen 11H170): 3060 nM | IC50 (primary AML specimens; primary AML specimen 11H217): 1690 nM | IC50 (primary AML specimens; primary AML specimen 11H232): 1460 nM | IC50 (primary AML specimens; primary AML specimen 12H033): 2450 nM | IC50 (primary AML specimens; primary AML specimen 12H055): 1470 nM | IC50 (primary AML specimens; primary AML specimen 12H148): 1880 nM | IC50 (primary AML specimens; primary AML specimen 13H053): 2280 nM | IC50 (primary AML specimens; primary AML specimen 15H045): 931 nM | IC50 (primary AML specimens; primary AML specimen 17H065): 1420 nM | Ratio shCUL4A/shCTRL [2]: 4.25 | IC50 (OCI-AML5 cells): 1070 nM | % CDK9 inhibition (CDK9/CyclinT): 0% | % CDK1 inhibition (CDK1): 0% | in vitro inhibition of CDK12/Cyclin K activity (CDK12/Cyclin K; Log10 (uM) 1.69897, in % (unit assumed)): 45.8 and 46.66 and 37.27 | IC50 (CDK12/Cyclin K; read-out: IC50, in vitro inhibition of CDK12/Cyclin K activity): > 50000 nM
